Holding throughout (experiment): Post-emergence glasshouse herbicidal efficacy, percentage damage to plant
Type in all cases: in vivo
What all share (conditions): after 14 days

The subject of assay [1] is Echinochloa crus-galli (ECHCG). The text has this: (§1) When active ingredients are combined, the activity to be expected (E) for any given active ingredient combination obeys the so-called Colby Formula and can be calculated as follows (Colby, S. R., Calculating synergistic and antagonistic responses of herbicide combination, Weeds, Vol. 15, pages 20-22; 1967): • ppm=milligrams of active ingredient (a.i.) per liter • X=% action by first active ingredient using p ppm of the active ingredient • Y=% action by second active ingredient sing q ppm of the active ingredient.
(§2) According to Colby, the expected action of active ingredients A+B using p+q ppm of active ingredient is represented by the following formula: […]
(§3) If the action actually observed (O) is greater than the expected action E then the action of the combination is super-additive, i.e. there is a synergistic effect. In mathematical terms, synergism corresponds to a positive value for the difference of (O-E). In the case of purely complementary addition of activities (expected activity), said difference (O-E) is zero. A negative value of said difference (O-E) signals a loss of activity compared to the expected activity.
(§4) Biological Efficacy Tests Seeds of a variety of test species are sown in standard soil in pots (Ipomoea hederacea (IPHOE), Alopecurus myosuroides (ALOMY), Lolium perenne (LOLPE), Echinochloa crus-galli (ECHCG), and Setaria faberi (SETFA)), and cultivated under controlled conditions in a glasshouse (at 24/16° C., day/night; 14 hours light; 65% humidity), the plants are sprayed with an aqueous spray solution derived from the dissolution of the test compound or composition in acetone and IF50 (11.12% Emulsogen EL360 TM+44.44% N-methylpyrrolidone+44.44% Dowanol DPM glycol ether) which was then diluted to the required concentration using 0.2% Genapol X080 (CAS No. 9043-30-5) in water as the diluent. Test compounds or compositions are applied at the rates stated. The test plants are then grown in a glasshouse under controlled conditions in a glasshouse (at 24/16° C., day/night; 14 hours light; 65% humidity) and watered twice daily. After 14 days, the test is evaluated for the percentage damage caused to the plant (100=total damage to plant; 0=no damage to plant), and the result are shown below in tables B1 to B5.

The subject of a further assay is Setaria faberi (SETFA).
Excerpt: as §1, §2, §3, §4

Assay [2] deals with Alopecurus myosuroides (ALOMY).
Excerpt: as §1, §2, §3, §4

The subject of assay [3] is Ipomoea hederacea (IPOHE).
Excerpt: as §1, §2, §3, §4

A further assay relates to Lolium perenne (LOLPE).
Excerpt: as §1, §2, §3, §4

SMILES strings stand for the structures.

Take `CCOC(=O)C1(C)CC(c2cc(-n3c(=O)cc(C(F)(F)F)n(C)c3=O)c(F)cc2Cl)=NO1` (centres unmarked) [(Ia)]: the inhibition at 1.875 g/ha in assay [1] (Echinochloa crus-galli, 336 h, (Ia) 1.875 g/Ha alone, read-out: Observed Activity (%)) was found to be 15%; in the assay on Setaria faberi (SETFA) (Setaria faberi, 336 h, (Ia) 1.875 g/Ha alone, read-out: Observed Activity (%)), 55%; in assay [2] (Alopecurus myosuroides, 336 h, (Ia) 1.875 g/Ha alone, read-out: Observed Activity (%)), 10%; in the assay on Lolium perenne (LOLPE) (Lolium perenne, 336 h, (Ia) 1.875 g/Ha alone, read-out: Observed Activity (%)), 0%. For the same molecule, the inhibition at 3.75 g/ha in assay [1] (Echinochloa crus-galli, 336 h, (Ia) 3.75 g/Ha alone, read-out: Observed Activity (%)) was 37.5%; in the assay with Setaria faberi (SETFA) (Setaria faberi, 336 h, (Ia) 3.75 g/Ha alone, read-out: Observed Activity (%)), 67.5%; in assay [2] (Alopecurus myosuroides, 336 h, (Ia) 3.75 g/Ha alone, read-out: Observed Activity (%)) it was 27.5%; in the assay with Lolium perenne (LOLPE) (Lolium perenne, 336 h, (Ia) 3.75 g/Ha alone, read-out: Observed Activity (%)), 12.5%. Further, the inhibition at 7.5 g/ha in assay [1] (Echinochloa crus-galli, 336 h, (Ia) 7.5 g/Ha alone, read-out: Observed Activity (%)) turned out to be 99%; in assay [2] (Alopecurus myosuroides, 336 h, (Ia) 7.5 g/Ha alone, read-out: Observed Activity (%)) it was 42.5%; with Lolium perenne (LOLPE) (Lolium perenne, 336 h, (Ia) 7.5 g/Ha alone, read-out: Observed Activity (%)), 42.5%. In addition, the inhibition at 15 g/ha in assay [2] (Alopecurus myosuroides, 336 h, (Ia) 15 g/Ha alone, read-out: Observed Activity (%)) is 60%; in the assay with Lolium perenne (LOLPE) (Lolium perenne, 336 h, (Ia) 15 g/Ha alone, read-out: Observed Activity (%)) it was 50%. In addition, the inhibition at 0.9375 g/ha in assay [3] (Ipomoea hederacea, 336 h, (Ia) 0.9375 g/Ha alone, read-out: Observed Activity (%)) was 84.8%.
Turning to `CCc1cccc(C)c1N(C(=O)CCl)[C@@H](C)COC` [S-metolachlor], the “Observed Activity (%)” value in assay [1] (S-metolachlor 18.75 g/Ha alone) is on record as 75.0%; in assay [1] (S-metolachlor 37.5 g/Ha alone), 85.0%; in assay [1] (S-metolachlor 75 g/Ha alone) it was 85.0%; in the assay with Setaria faberi (SETFA) (S-metolachlor 37.5 g/Ha alone), 72.5%; with Setaria faberi (SETFA) (S-metolachlor 75 g/Ha alone), 82.5%; in the assay with Setaria faberi (SETFA) (S-metolachlor 150 g/Ha alone), 85.0%. Besides, the “Observed Activity (%)” value in assay [2] (S-metolachlor 18.75 g/Ha alone) came out at 0.0%; in assay [2] (S-metolachlor 37.5 g/Ha alone), 10.0%; in assay [2] (S-metolachlor 75 g/Ha alone), 0.0%; in assay [2] (S-metolachlor 150 g/Ha alone) it was 27.5%; in assay [2] (S-metolachlor 300 g/Ha alone) it was 45.0%; in assay [3] (S-metolachlor 62.5 g/Ha alone) it was 5.0%. Also, the “Observed Activity (%)” value in assay [3] (S-metolachlor 125 g/Ha alone) was 7.5%; in the assay with Lolium perenne (LOLPE) (S-metolachlor 18.75 g/Ha alone) it was 45.0%; with Lolium perenne (LOLPE) (S-metolachlor 37.5 g/Ha alone), 60.0%; with Lolium perenne (LOLPE) (S-metolachlor 75 g/Ha alone) it was 70.0%; with Lolium perenne (LOLPE) (S-metolachlor 150 g/Ha alone), 67.5%; in the assay on Lolium perenne (LOLPE) (S-metolachlor 300 g/Ha alone), 80.0%.

These data come from patent publication US20260240159A1, “HERBICIDAL COMPOSITIONS” (SYNGENTA CROP PROTECTION AG, priority 2023, published 2026).
